Where two headings read alike, the source gives them in different places.
Legend:
[1] = tested on: KP1081 (NDM-1, TEM-1, SHV-11, CMY-6, CTX-M-15); assay: Carbapenem potentiation against clinical isolate; format: cell-based; conditions: Klebsiella pneumoniae; strain KP1081; read-out: Biapenem MIC Alone
Source text: (§1) The results are present in Table 6.
The results are present in Table 7.

NDM-1 [2] = molecular target: T1, NDM-1 (Klebsiella pneumoniae, UniProt C7C422); format: biochemical
VIM-1 = molecular target: T2, VIM-1 (Pseudomonas aeruginosa, UniProt A0A0F7KYQ8); format: biochemical; conditions: cleavage of nitrocefin (200 uM) by VIM-1 supernatant
T2 construct: made in house; host or cells: ECM6711 strain carrying pUCP24-VIM-1 plasmid (culture supernatant, not purified)

NDM-1 [3] = molecular target: T1, NDM-1; format: biochemical; conditions: read-out: Ki NDM-1, Imipenem
ECM6703 pUCP24-NDM-1 = format: cell-based, E. coli; conditions: Compound 1 at fixed 4 μg/ml or 8 μg/ml; NDM-1 producing strain
ECM6711 pUCP24-VIM-1 = format: cell-based, E. coli; conditions: Compound 1 at fixed 4 μg/ml or 8 μg/ml; VIM-1 producing strain
[4] = tested on: clinical isolates expressing class A, B and D carbapenemases; assay: Carbapenem potentiation against panel of clinical isolates; format: cell-based; conditions: Compound 1 at fixed 5 μg/ml; biapenem, doripenem, imipenem, meropenem; all the strains
Source text: as §1

OXA-48 = OXA-48 (Klebsiella pneumoniae, UniProt Q6XEC0); assay: Inhibition of purified class D carbapenemase, biapenem substrate; format: biochemical; conditions: purified enzyme
SHV-12 = SHV-12 (Klebsiella pneumoniae, UniProt P0AD64, E235K/G234S/L31Q); assay: Inhibition of nitrocefin cleavage by purified enzyme; format: biochemical; conditions: nitrocefin substrate; read-out: Ki (SHV-12, NCF)
Method: Purified enzymes were mixed with various concentrations of inhibitors in reaction buffer and incubated for 10 min at room temperature. Nitrocefin was added and substrate cleavage profiles were recorded at 490 nm every 10 sec for 10 min.

[5] = cleavage of biapenem (100 uM) by NDM-1, read-out: Ki, Biapenem
[6] = cleavage of tebipenem (100 uM) by NDM-1, read-out: Ki, Tebipenem

Sequence of SHV-12 (P0AD64 22-286 L31Q/G234S/E235K): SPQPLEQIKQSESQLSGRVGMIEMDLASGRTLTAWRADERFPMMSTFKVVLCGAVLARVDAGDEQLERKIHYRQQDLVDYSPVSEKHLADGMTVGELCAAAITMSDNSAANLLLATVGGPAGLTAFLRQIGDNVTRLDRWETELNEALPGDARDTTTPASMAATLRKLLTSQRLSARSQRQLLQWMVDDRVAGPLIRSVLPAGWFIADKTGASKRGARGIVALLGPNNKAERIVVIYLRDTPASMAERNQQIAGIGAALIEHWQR
Sequence of OXA-48 (Q6XEC0 23-265 limits assumed): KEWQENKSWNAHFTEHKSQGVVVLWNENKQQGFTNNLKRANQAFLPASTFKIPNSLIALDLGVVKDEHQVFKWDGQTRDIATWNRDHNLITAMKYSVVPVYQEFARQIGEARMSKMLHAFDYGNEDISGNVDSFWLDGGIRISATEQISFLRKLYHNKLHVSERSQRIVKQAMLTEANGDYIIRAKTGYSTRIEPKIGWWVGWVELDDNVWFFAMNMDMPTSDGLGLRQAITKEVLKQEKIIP
T1 sequence (C7C422 29-270 limits assumed): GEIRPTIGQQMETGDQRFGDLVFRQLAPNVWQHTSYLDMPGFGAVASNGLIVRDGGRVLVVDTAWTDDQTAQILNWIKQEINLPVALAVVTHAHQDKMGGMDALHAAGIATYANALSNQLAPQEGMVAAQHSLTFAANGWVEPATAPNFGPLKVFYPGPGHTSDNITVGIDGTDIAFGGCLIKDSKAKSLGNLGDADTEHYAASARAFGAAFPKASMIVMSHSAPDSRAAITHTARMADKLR

Row | SMILES | MIC [1] [µg/mL] | Ki (NDM-1 [2]; [5]) [nM] | Ki (NDM-1 [2]; [6]) [nM] | Ki (NDM-1 [2]; read-out: Ki, Imipenem) [nM] | IC50 (VIM-1) [nM] | Ki (NDM-1 [3]) [nM] | imipenem MIC in the presence of Compound 1 (ECM6703 pUCP24-NDM-1) | imipenem MIC in the presence of Compound 1 (ECM6711 pUCP24-VIM-1) | carbapenem MIC in the presence of Compound 1 [4] | Ki (OXA-48) [nM] | Ki (SHV-12) [nM]
1 | C[C@@H](O)[C@H]1C(=O)N2C(C(=O)[O-])=C(SC3Cn4cnc[n+]4C3)[C@H](C)[C@H]12 (stereo partly drawn) [Biapenem] | > 10 |  |  |  |  |  |  |  |  |  | 
2 | O=C(O)c1cccc2c1OB(O)[C@@H](Sc1nncs1)C2 [Compound 1, (R)-3-(1,3,4-thiadiazol-2-ylthio)-2-hydroxy-3,4-dihydro-2H-benzo[e][1,2]oxaborinine-8-carboxylic acid] |  | 10 to 100 | > 100 | 10 to 100 | < 1000 | 10 to 100 | decreased to the level of the strain containing empty vector | decreased to the level of the strain containing empty vector | significantly reduced |  | 
3 | O=C(O)c1cccc2c1OB(O)[C@@H](Sc1nnc[nH]1)C2 [Compound 2, (R)-3-(4H-1,2,4-triazol-3-ylthio)-2-hydroxy-3,4-dihydro-2H-benzo[e][1,2]oxaborinine-8-carboxylic acid] |  |  | 10 to 100 | < 10 | < 1000 | < 10 |  |  |  | 10 to 100 | < 100
4 | NC(=O)CS[C@H]1Cc2cccc(C(=O)O)c2OB1O [Compound 3, (R)-3-(2-amino-2-oxoethylthio)-2-hydroxy-3,4-dihydro-2H-benzo[e][1,2]oxaborinine-8-carboxylic acid] |  | > 100 | > 100 | > 100 |  | > 100 |  |  |  | < 10 | 100 to 1000
5 | Nc1nnc(S[C@H]2Cc3cccc(C(=O)O)c3OB2O)s1 [Compound 4, (R)-3-(5-amino-1,3,4-thiadiazol-2-ylthio)-2-hydroxy-3,4-dihydro-2H-benzo[e][1,2]oxaborinine-8-carboxylic acid] |  | < 10 | < 10 | < 10 | < 1000 | < 10 |  |  |  | < 10 | < 100
6 | Cn1nnnc1S[C@H]1Cc2cccc(C(=O)O)c2OB1O [Compound 5, (R)-2-hydroxy-3-(1-1H-tetrazol-5-ylthio)-3,4-dihydro-2H-benzo[e][1,2]oxaborinine-8-carboxylic acid] |  |  |  | 10 to 100 | ≥ 1000 | 10 to 100 |  |  |  |  | 
7 | O=C(O)c1cccc2c1OB(O)[C@@H](Sc1ccccc1)C2 [Compound 6, (R)-2-hydroxy-3-(phenylthio)-3,4-dihydro-2H-benzo[e][1,2]oxaborinine-8-carboxylic acid] |  |  |  | < 10 | < 1000 | < 10 |  |  |  |  | 
8 | CC(=O)Nc1nnc(S[C@H]2Cc3cccc(C(=O)O)c3OB2O)s1 [Compound 7, (R)-3-(5-acetamido-1,3,4-thiadiazol-2-ylthio)-2-hydroxy-3,4-dihydro-2H-benzo[e][1,2]oxaborinine-8-carboxylic acid] |  |  |  | 10 to 100 | < 1000 | 10 to 100 |  |  |  | < 10 | < 100
9 | O=C(O)c1cccc2c1OB(O)[C@@H](Sc1cccnc1)C2 [Compound 8, (R)-2-hydroxy-3-(pyridin-3-ylthio)-3,4-dihydro-2H-benzo[e][1,2]oxaborinine-8-carboxylic acid] |  |  |  | > 100 | < 1000 | > 100 |  |  |  |  | 
